Measured values as given in the supplement of paper PMC10307832.

How the values were obtained:
Assay in all cases: relative viability (nuclei count vs DMSO), 5 days (fraction); higher = more cells survive
IA-LM = system: IA-LM
Outline: (§1)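 Nuclei were stained with Hoechst during a one-step fixation (final 0.05% Triton X-100, 1% formaldehyde, 1 ug/ml Hoechst) carried out 5 days after dosing, then counted on 4× images. The cells, lung cancer lines in 1536-well plates, had been dosed by pin tool the day after seeding with one drug alone or a fixed anchor-drug dose plus five library-drug doses (not always all listed) in √10 steps. Relative viability is the nuclei count in treated wells divided by that in vehicle wells, and each value is the median of duplicate plates.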

NCI-H1703 = system: NCI-H1703
Outline: as §1

NCI-H1355 = system: NCI-H1355
Outline: as §1

LCLC-97TM1 = system: LCLC-97TM1
Outline: as §1

NCI-H520 = system: NCI-H520
Outline: as §1

NCI-H23 = system: NCI-H23
Outline: as §1

NCI-H1648 = system: NCI-H1648
Outline: as §1

A549 = system: A549
Outline: as §1

Calu-6 = system: Calu-6
Outline: as §1

EBC-1 = system: EBC-1
Outline: as §1

NCI-H2347 = system: NCI-H2347
Outline: as §1

NCI-H1299 = system: NCI-H1299
Outline: as §1

LC-2-ad = system: LC-2-ad
Outline: as §1

PC-3 [JPC-3] = system: PC-3 [JPC-3]
Outline: as §1

NCI-H1623 = system: NCI-H1623
Outline: as §1

SMILES: COCC1(CO)C(=O)C2CCN1CC2 (centres undefined) [PRIMA-1MET] + O=C(c1cc(Cc2n[nH]c(=O)c3ccccc23)ccc1F)N1CCN(C(=O)C2CC2)CC1 [Olaparib] (partner 8 µM)
- relative viability (IA-LM; first compound 0.2 µM): 0.867
- relative viability (IA-LM; first compound 0.6325 µM): 0.676
- relative viability (IA-LM; first compound 2 µM): 0.905
- relative viability (IA-LM; first compound 6.325 µM): 0.819
- relative viability (IA-LM; first compound 20 µM): 0.788
- relative viability (NCI-H1703; first compound 0.2 µM): 0.422
- relative viability (NCI-H1703; first compound 6.325 µM): 0.769
- relative viability (NCI-H1703; first compound 20 µM): 0.0733
- relative viability (NCI-H1355; first compound 0.2 µM): 0.768
- relative viability (NCI-H1355; first compound 0.6325 µM): 0.745
- relative viability (NCI-H1355; first compound 2 µM): 0.713
- relative viability (NCI-H1355; first compound 6.325 µM): 0.818
- relative viability (NCI-H1355; first compound 20 µM): 0.707
- relative viability (LCLC-97TM1; first compound 0.2 µM): 0.45
- relative viability (LCLC-97TM1; first compound 0.6325 µM): 0.33
- relative viability (LCLC-97TM1; first compound 2 µM): 0.461
- relative viability (LCLC-97TM1; first compound 6.325 µM): 0.347
- relative viability (LCLC-97TM1; first compound 20 µM): 0.236
- relative viability (NCI-H520; first compound 0.2 µM): 0.371
- relative viability (NCI-H520; first compound 2 µM): 0.38
- relative viability (NCI-H520; first compound 6.325 µM): 0.318
- relative viability (NCI-H520; first compound 20 µM): 0.144
- relative viability (NCI-H23; first compound 0.2 µM): 0.313
- relative viability (NCI-H23; first compound 0.6325 µM): 0.291
- relative viability (NCI-H23; first compound 2 µM): 0.287
- relative viability (NCI-H23; first compound 6.325 µM): 0.27
- relative viability (NCI-H23; first compound 20 µM): 0.082
- relative viability (NCI-H1648; first compound 0.2 µM): 0.747
- relative viability (NCI-H1648; first compound 2 µM): 1.43
- relative viability (NCI-H1648; first compound 20 µM): 0.912
- relative viability (A549; first compound 0.2 µM): 0.528
- relative viability (A549; first compound 0.6325 µM): 0.365
- relative viability (A549; first compound 2 µM): 0.379
- relative viability (A549; first compound 6.325 µM): 0.371
- relative viability (A549; first compound 20 µM): 0.266
- relative viability (Calu-6; first compound 0.2 µM): 0.547
- relative viability (Calu-6; first compound 0.6325 µM): 0.588
- relative viability (Calu-6; first compound 2 µM): 0.594
- relative viability (Calu-6; first compound 6.325 µM): 0.516
- relative viability (Calu-6; first compound 20 µM): 0.443
- relative viability (EBC-1; first compound 0.2 µM): 0.692
- relative viability (EBC-1; first compound 0.6325 µM): 0.712
- relative viability (EBC-1; first compound 2 µM): 0.701
- relative viability (EBC-1; first compound 6.325 µM): 0.828
- relative viability (EBC-1; first compound 20 µM): 0.7
- relative viability (NCI-H2347; first compound 0.2 µM): 0.641
- relative viability (NCI-H2347; first compound 0.6325 µM): 0.517
- relative viability (NCI-H2347; first compound 2 µM): 0.559
- relative viability (NCI-H2347; first compound 6.325 µM): 0.624
- relative viability (NCI-H2347; first compound 20 µM): 0.433
- relative viability (NCI-H1299; first compound 0.2 µM): 0.984
- relative viability (NCI-H1299; first compound 0.6325 µM): 0.921
- relative viability (NCI-H1299; first compound 2 µM): 0.99
- relative viability (NCI-H1299; first compound 6.325 µM): 0.959
- relative viability (NCI-H1299; first compound 20 µM): 0.984
- relative viability (LC-2-ad; first compound 0.2 µM): 0.751
- relative viability (LC-2-ad; first compound 0.6325 µM): 0.673
- relative viability (LC-2-ad; first compound 2 µM): 0.659
- relative viability (LC-2-ad; first compound 6.325 µM): 0.68
- relative viability (LC-2-ad; first compound 20 µM): 0.7
- relative viability (PC-3 [JPC-3]; first compound 0.2 µM): 1.4
- relative viability (PC-3 [JPC-3]; first compound 0.6325 µM): 1.26
- relative viability (PC-3 [JPC-3]; first compound 2 µM): 1.11
- relative viability (PC-3 [JPC-3]; first compound 6.325 µM): 1.14
- relative viability (PC-3 [JPC-3]; first compound 20 µM): 0.981

SMILES: COCC1(CO)C(=O)C2CCN1CC2 (centres undefined) [PRIMA-1MET] + Cc1nc(Nc2ncc(C(=O)Nc3c(C)cccc3Cl)s2)cc(N2CCN(CCO)CC2)n1 [Dasatinib] (partner 0.075 µM)
- relative viability (NCI-H1355; first compound 0.2 µM): 0.793
- relative viability (NCI-H1355; first compound 0.6325 µM): 0.571
- relative viability (NCI-H1355; first compound 2 µM): 0.785
- relative viability (NCI-H1355; first compound 6.325 µM): 0.766
- relative viability (NCI-H1355; first compound 20 µM): 0.657
- relative viability (LCLC-97TM1; first compound 0.2 µM): 0.461
- relative viability (LCLC-97TM1; first compound 0.6325 µM): 1.01
- relative viability (LCLC-97TM1; first compound 2 µM): 0.815
- relative viability (LCLC-97TM1; first compound 6.325 µM): 0.855
- relative viability (LCLC-97TM1; first compound 20 µM): 0.833
- relative viability (NCI-H520; first compound 0.2 µM): 0.203
- relative viability (NCI-H520; first compound 0.6325 µM): 0.204
- relative viability (NCI-H520; first compound 2 µM): 0.258
- relative viability (NCI-H520; first compound 6.325 µM): 0.176
- relative viability (NCI-H520; first compound 20 µM): 0.13
- relative viability (NCI-H23; first compound 0.2 µM): 0.692
- relative viability (NCI-H23; first compound 0.6325 µM): 0.799
- relative viability (NCI-H23; first compound 2 µM): 0.687
- relative viability (NCI-H23; first compound 6.325 µM): 0.721
- relative viability (NCI-H23; first compound 20 µM): 0.221
- relative viability (NCI-H2347; first compound 0.2 µM): 0.766
- relative viability (NCI-H2347; first compound 0.6325 µM): 0.257
- relative viability (NCI-H2347; first compound 2 µM): 0.291
- relative viability (NCI-H2347; first compound 6.325 µM): 0.3
- relative viability (NCI-H2347; first compound 20 µM): 0.37
- relative viability (LC-2-ad; first compound 0.2 µM): 0.346
- relative viability (LC-2-ad; first compound 2 µM): 0.472
- relative viability (LC-2-ad; first compound 6.325 µM): 0.584
- relative viability (LC-2-ad; first compound 20 µM): 0.508
- relative viability (NCI-H1623; first compound 0.2 µM): 0.517
- relative viability (NCI-H1623; first compound 0.6325 µM): 0.563
- relative viability (NCI-H1623; first compound 2 µM): 0.518
- relative viability (NCI-H1623; first compound 6.325 µM): 0.577
- relative viability (NCI-H1623; first compound 20 µM): 0.519
- relative viability (PC-3 [JPC-3]; first compound 0.2 µM): 0.977
- relative viability (PC-3 [JPC-3]; first compound 0.6325 µM): 0.977
- relative viability (PC-3 [JPC-3]; first compound 2 µM): 0.96
- relative viability (PC-3 [JPC-3]; first compound 6.325 µM): 0.933
- relative viability (PC-3 [JPC-3]; first compound 20 µM): 0.971
